Results published in patent publication US20060084599A1, “Compositions, methods and kits relating to notch signaling” (Maine Medical Center, priority 2003, published 2006).

Tests used:
NSC populations = experiment: NSC clonal expansion on full-length Jagged1 NIH 3T3 feeder layer; type: cell-based; details: 5 μg/ml thrombin
Text: To further evaluate the activity of thrombin as a modifier of Jagged1, the clonal expansion studies were repeated using NSC populations cultured in the presence of a viable full-length Jagged1 NIH 3T3 cell transfectant feeder layer.

Delta1 = target: T1, Delta1 (Homo sapiens, UniProt O00548); experiment: Thrombin treatment of in vitro translated Delta1; type: biochemical
T1 construct: made in house; host or cells: cell-free in vitro translation (system not described for Delta1)
T1 sequence (O00548 18-723): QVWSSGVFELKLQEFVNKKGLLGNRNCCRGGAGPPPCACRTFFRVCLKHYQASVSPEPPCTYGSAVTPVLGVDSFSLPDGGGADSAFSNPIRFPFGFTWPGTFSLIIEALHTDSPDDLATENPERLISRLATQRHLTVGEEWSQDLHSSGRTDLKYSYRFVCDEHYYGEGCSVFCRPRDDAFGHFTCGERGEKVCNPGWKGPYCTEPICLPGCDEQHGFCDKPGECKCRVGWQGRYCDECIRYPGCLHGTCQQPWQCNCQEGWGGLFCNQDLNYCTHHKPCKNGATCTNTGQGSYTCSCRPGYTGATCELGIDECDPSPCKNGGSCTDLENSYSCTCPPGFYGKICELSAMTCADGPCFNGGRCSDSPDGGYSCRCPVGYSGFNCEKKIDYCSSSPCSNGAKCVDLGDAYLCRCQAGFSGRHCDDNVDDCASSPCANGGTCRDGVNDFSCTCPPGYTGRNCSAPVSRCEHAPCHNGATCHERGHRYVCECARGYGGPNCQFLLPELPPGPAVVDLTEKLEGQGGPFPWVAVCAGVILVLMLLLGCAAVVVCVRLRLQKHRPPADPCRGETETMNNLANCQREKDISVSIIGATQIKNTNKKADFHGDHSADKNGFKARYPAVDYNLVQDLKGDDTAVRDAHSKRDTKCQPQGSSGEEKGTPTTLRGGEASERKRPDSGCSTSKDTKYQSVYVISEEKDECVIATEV

## thrombin
NSC populations
  size of NSC colonies on full-length Jagged1 feeder layer: exaggeration of the size of the NSC colonies
Delta1
  proteolytic modification of Delta1 translation product: unable to proteolytically modify the in vitro translation product of the Delta1 transcript
